The values below come from ChEMBL document CHEMBL4118225, “Development, Optimization, and Structure-Activity Relationships of Covalent-Reversible JAK3 Inhibitors Based on a Tricyclic Imidazo[5,4- d]pyrrolo[2,3- b]pyridine Scaffold” (J Med Chem, 2018).

SMILES strings stand for the structures. In brackets after ≈: the same amount, converted by molar mass.

Data set [1] has as its target T1, Tyrosine-protein kinase JAK1 (Homo sapiens, UniProt P23458).
Description: Inhibition of human JAK1 using poly[Glu:Tyr] (4:1) as substrate in presence of 10 uM [gamma33P]ATP by radiometric method
Data set [2] has as its target Non-receptor tyrosine-protein kinase TYK2 (Homo sapiens, UniProt P29597).
Data set [3] has as its target T2, Tyrosine-protein kinase JAK3 (Homo sapiens, UniProt P52333).
T2 sequence (P52333 whole entry): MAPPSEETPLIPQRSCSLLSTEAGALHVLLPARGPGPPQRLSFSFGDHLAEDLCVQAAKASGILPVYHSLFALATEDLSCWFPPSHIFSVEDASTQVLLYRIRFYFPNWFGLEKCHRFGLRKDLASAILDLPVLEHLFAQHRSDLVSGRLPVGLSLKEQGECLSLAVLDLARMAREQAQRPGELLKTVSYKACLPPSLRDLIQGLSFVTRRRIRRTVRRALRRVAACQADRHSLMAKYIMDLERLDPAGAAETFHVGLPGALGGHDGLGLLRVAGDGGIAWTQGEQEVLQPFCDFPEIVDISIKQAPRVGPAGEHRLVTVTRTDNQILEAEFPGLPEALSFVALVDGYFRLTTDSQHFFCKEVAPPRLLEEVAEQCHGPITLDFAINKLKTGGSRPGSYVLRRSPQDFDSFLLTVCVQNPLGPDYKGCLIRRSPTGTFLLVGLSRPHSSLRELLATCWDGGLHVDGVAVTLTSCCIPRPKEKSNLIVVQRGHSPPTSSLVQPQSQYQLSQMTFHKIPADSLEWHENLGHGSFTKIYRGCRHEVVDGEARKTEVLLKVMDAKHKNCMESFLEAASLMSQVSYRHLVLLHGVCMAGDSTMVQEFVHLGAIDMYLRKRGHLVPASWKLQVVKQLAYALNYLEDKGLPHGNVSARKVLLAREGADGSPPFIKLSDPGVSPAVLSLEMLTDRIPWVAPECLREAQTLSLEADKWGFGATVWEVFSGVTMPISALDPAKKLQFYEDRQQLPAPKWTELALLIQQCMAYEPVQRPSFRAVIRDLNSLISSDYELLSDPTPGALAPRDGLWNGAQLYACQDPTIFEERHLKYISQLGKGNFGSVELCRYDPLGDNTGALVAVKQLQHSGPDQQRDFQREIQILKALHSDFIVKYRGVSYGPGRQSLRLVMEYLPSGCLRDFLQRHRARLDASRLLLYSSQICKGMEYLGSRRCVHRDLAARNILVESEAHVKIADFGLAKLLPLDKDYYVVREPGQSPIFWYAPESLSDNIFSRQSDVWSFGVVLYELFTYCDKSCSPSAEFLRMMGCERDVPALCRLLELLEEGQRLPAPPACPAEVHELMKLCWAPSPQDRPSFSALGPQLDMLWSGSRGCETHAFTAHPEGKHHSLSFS

Data set [4] concerns the target T3, Tyrosine-protein kinase JAK2 (Homo sapiens, UniProt O60674).
Description: Inhibition of human JAK2 using poly[Glu:Tyr] (4:1) as substrate in presence of 10 uM [gamma33P]ATP by radiometric method
Data set [5] addresses T2, Tyrosine-protein kinase JAK3. The source holds these as a separate data set.
Description: Inhibition of recombinant human JAK3 (781 to 1124 residues) expressed in baculovirus expression system assessed as reduction in polypeptide substrate phosphorylation in presence of ATP by ELISA
Data set [6] in a line: Thiol reactivity in kinase assay buffer in presence of DTT. Format: physicochemical.
The target of data set [7] is T1, Tyrosine-protein kinase JAK1. The source holds these as a separate data set.
Description: Inhibition of kinase tracer-04 binding to C-terminal NanoLuc tagged full length JAK1 (unknown origin) expressed in HEK cells by NanoBRET assay
Data set [8] deals with T3, Tyrosine-protein kinase JAK2. Put plainly: Inhibition of kinase tracer-05 binding to C-terminal NanoLuc tagged full length JAK2 (unknown origin) expressed in HEK cells by NanoBRET assay. Format: cell-based. For orientation: Bioluminescence resonance energy transfer reports proximity on the nanometre scale.
The target in data set [9] is T2, Tyrosine-protein kinase JAK3. This is another data set of the same source.
Description: Inhibition of kinase tracer-05 binding to C-terminal NanoLuc tagged full length JAK3 (unknown origin) expressed in HEK cells by NanoBRET assay
The target of data set [10] is Tyrosine-protein kinase BTK (Homo sapiens, UniProt Q06187). Put plainly: Inhibition of kinase tracer-05 binding to C-terminal NanoLuc tagged full length BTK (unknown origin) expressed in HEK cells by NanoBRET assay. Format: cell-based.
Sequence of Tyrosine-protein kinase BTK (Q06187 whole entry): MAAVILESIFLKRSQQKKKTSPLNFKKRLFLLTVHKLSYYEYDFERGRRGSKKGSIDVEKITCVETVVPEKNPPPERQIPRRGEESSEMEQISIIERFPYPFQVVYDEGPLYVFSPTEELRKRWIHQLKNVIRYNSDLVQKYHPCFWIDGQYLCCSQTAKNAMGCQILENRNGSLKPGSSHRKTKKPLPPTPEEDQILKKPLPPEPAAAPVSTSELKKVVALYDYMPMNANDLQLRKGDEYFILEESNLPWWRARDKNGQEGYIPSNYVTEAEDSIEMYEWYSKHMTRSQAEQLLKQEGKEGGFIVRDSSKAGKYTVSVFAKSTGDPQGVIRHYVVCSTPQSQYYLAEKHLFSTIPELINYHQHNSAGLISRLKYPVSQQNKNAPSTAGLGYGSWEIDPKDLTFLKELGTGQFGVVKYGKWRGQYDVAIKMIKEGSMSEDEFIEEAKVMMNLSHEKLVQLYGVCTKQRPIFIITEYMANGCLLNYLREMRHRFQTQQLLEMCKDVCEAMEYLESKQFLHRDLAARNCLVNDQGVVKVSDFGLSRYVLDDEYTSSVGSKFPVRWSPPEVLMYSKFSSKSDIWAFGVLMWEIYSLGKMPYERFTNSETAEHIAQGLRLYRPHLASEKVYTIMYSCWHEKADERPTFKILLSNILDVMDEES
A short description of data set [11]: Metabolic stability in mouse liver microsomes assessed as parent compound remaining at 100 uM after 180 mins in presence of NADPH regenerating system by LC-MS analysis. Format: ADME, microsome. The settings on record: read-out: Stability. (In general: Liver microsomes are a subcellular fraction often used to study metabolism.)
The nature of data set [12]: Metabolic stability in human whole blood assessed as parent compound remaining at 1 uM after 180 mins by LC-MS analysis. Format: ADME, tissue-based. The settings on record: read-out: Stability.
Data set [13] can be described thus: Half life in human whole blood at 1 uM by LC-MS analysis. Format: ADME, tissue-based.
Data set [14] is described as follows: Aqueous solubility in pH 7.4 PBS buffer by HPLC analysis. Format: physicochemical.
Data set [15] in a line: Aqueous solubility in HEPES buffer. Format: physicochemical.

T3 sequence (O60674 whole entry): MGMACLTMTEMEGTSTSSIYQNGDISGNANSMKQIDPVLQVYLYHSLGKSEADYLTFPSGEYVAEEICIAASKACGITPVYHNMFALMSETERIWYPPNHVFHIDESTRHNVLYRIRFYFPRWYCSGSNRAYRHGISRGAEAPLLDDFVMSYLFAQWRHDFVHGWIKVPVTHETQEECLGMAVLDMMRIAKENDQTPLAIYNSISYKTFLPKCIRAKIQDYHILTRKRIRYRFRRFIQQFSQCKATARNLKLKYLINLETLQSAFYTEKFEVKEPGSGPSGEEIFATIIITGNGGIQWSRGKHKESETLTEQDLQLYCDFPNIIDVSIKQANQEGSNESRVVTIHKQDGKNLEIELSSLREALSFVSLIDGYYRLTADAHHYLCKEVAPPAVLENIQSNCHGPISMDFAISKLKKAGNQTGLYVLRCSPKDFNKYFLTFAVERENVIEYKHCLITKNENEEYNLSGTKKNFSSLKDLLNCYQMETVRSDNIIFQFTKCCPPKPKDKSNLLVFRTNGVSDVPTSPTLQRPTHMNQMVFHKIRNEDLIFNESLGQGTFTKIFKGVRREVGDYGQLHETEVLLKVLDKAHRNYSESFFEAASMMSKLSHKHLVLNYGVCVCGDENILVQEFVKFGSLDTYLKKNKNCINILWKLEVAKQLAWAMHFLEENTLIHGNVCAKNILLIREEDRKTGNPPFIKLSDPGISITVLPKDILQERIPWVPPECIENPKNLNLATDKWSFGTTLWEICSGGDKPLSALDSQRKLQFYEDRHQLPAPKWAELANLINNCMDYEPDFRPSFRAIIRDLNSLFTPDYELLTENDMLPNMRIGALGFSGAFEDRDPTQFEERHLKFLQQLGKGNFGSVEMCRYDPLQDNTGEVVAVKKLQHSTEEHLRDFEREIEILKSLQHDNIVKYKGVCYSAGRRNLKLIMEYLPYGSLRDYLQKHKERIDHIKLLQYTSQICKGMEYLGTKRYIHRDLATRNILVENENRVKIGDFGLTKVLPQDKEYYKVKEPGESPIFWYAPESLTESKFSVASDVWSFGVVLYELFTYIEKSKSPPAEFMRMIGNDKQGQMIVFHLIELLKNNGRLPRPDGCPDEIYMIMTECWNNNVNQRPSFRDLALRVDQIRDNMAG
T1 sequence (P23458 whole entry): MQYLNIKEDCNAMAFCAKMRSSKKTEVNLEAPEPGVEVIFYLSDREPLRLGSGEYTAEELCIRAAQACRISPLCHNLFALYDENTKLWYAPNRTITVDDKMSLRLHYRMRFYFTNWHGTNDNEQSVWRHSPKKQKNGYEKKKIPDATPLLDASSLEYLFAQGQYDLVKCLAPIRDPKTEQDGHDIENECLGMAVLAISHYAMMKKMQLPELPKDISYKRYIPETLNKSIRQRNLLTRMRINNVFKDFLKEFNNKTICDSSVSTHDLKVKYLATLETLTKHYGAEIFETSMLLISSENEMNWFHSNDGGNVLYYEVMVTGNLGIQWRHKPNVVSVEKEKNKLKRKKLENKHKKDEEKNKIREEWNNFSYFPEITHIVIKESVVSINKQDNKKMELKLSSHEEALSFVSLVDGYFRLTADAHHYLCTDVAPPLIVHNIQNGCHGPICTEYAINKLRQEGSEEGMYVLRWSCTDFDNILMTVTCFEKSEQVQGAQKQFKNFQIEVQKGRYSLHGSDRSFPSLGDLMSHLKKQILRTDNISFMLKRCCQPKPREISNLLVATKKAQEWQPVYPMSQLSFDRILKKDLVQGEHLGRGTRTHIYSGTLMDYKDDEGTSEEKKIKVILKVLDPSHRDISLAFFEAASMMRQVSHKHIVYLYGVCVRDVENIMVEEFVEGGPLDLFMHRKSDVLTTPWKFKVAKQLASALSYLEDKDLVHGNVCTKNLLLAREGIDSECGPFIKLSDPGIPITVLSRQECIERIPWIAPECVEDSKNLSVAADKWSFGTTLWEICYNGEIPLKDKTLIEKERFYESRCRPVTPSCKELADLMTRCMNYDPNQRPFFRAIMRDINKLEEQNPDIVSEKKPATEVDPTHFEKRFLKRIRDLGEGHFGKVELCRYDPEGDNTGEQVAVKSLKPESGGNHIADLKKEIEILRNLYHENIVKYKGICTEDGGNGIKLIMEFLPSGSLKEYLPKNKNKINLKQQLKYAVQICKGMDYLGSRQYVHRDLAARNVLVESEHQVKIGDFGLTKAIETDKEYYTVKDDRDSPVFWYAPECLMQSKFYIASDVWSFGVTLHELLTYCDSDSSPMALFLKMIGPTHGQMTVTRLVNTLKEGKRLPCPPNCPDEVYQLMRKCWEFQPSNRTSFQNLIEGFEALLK
Sequence of Non-receptor tyrosine-protein kinase TYK2 (P29597 whole entry): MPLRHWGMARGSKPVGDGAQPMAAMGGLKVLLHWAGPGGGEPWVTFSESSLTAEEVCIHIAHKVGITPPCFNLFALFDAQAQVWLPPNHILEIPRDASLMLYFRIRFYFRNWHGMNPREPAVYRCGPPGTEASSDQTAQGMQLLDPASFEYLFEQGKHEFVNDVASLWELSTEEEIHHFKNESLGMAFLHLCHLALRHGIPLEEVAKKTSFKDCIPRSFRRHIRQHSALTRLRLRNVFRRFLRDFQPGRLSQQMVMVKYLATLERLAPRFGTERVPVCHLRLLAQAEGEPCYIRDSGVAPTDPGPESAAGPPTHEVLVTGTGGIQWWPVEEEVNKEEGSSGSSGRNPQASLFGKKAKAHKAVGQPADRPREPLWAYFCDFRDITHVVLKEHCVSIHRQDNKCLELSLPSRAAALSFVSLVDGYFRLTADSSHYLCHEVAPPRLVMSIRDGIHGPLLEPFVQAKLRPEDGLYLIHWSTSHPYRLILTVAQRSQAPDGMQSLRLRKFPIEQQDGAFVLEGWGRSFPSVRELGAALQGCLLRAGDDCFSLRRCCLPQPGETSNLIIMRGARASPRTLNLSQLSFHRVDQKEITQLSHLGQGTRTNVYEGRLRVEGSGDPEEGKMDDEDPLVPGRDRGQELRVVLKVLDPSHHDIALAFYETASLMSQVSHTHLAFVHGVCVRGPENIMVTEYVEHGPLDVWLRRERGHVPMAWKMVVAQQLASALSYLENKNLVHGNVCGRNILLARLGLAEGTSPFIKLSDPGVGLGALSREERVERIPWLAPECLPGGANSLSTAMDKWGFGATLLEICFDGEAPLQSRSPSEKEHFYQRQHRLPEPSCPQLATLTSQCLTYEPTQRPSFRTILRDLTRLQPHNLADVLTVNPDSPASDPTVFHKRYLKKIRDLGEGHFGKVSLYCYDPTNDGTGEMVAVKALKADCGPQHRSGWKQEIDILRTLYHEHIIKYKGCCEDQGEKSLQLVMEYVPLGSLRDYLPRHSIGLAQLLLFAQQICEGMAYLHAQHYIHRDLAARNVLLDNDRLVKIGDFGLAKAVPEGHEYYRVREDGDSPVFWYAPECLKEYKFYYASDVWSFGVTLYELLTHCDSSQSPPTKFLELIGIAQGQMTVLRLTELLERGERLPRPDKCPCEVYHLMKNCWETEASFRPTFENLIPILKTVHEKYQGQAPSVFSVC

In general, IC50 refers to the concentration that inhibits the measured activity by half. High values mean weaker potency in that assay, low ones greater potency in that assay. Consider `CN(C)C(=O)CCc1ccc(-c2nc3cnc4[nH]ccc4c3n2C2CCCCC2)o1`, for which the half-inhibitory concentration (IC50) in data set [1] worked out at 45 nM; in data set [2], 139 nM; in data set [3] it was 48 nM; in [4], 183 nM; in data set [5] it was 181 nM.
The term EC50 denotes the concentration that produces a half-maximal response. High values mean a need for much substance, low ones an effect from little substance. For `N#CC(C#N)=Cc1ccc(-c2nc3cnc4[nH]ccc4c3n2C2CCCCC2)o1`, in [6], the Drug metabolism result was “Metabolite_Detected”. For the same compound, the concentration giving a half-maximal response (EC50) came to 7660 nM in [7], 630 nM in data set [8], 678 nM in data set [9] and 5790 nM in [10]. Moreover, the half-inhibitory concentration (IC50) came to 4 nM in data set [1]; 14 nM in [2]; 0.39 nM in data set [3]; 188 nM in data set [4]; 4 nM in [5]. Also, the remaining at 3 h, 100 µM in data set [11] is 11%. Moreover, the remaining at 3 h, 1 µM in data set [12] is 1.5%.
`N#CCCc1ccc(-c2nc3cnc4[nH]ccc4c3n2C2CCCCC2)cc1`: the 50% inhibitory concentration (IC50) in data set [5] came out at 436 nM.
In data set [5], `CN(C)C(=O)C(C#N)=Cc1ccc(-c2nc3cnc4[nH]ccc4c3n2C2CCCCC2)cc1` yielded a concentration for half-maximal inhibition (IC50) of 571 nM.
Turning to `N#C/C=C/c1ccc(-c2nc3cnc4[nH]ccc4c3n2C2CCCCC2)cc1`, the half-maximal inhibitory concentration (IC50) in [5] turned out to be 390 nM.
A word on the half-life: it is the time needed for the level to fall by half in the phase considered. A word on the solubility: it is the concentration that dissolves in the medium under given conditions. Take `CN(C)C(=O)C(C#N)=Cc1ccc(-c2nc3cnc4[nH]ccc4c3n2C2CCCCC2)o1`: the half-life at 1 µM in data set [13] is 3 h. Besides, the EC50 in data set [10] was more than 10000 nM. Further, the remaining at 3 h, 100 µM in data set [11] stood at 58%. Also, the solubility in [14] amounted to 56 µM (≈ 24 µg/mL). Also, the remaining at 3 h, 1 µM in [12] was determined as 49.4%.
Take `NC(=O)CCc1ccc(-c2nc3cnc4[nH]ccc4c3n2C2CCCCC2)o1`: it took 59 nM to reach half-maximal inhibition in data set [5] (IC50).
As to `N#CCCc1cccc(-c2nc3cnc4[nH]ccc4c3n2C2CCCCC2)c1`, the IC50 in data set [5] amounted to 505 nM.
Consider `N#CC(C#N)=Cc1ccc(-c2nc3cnc4[nH]ccc4c3n2C2CCCCC2)cc1`, for which, in data set [6], the Drug metabolism entry is “Metabolite_Detected”. Also, the midpoint of inhibition in data set [5], the IC50, lay at 30 nM.
In turn, `CN(C)C(=O)C(C#N)=Cc1cccc(-c2nc3cnc4[nH]ccc4c3n2C2CCCCC2)c1` came in with a half-inhibitory concentration (IC50) in [5] of 205 nM.
In data set [5], `CN(C)C(=O)C(C#N)=Cc1ccc(-c2nc3cnc4c(ccn4C)c3n2C2CCCCC2)o1` returned an IC50 of more than 10000 nM.
Regarding `CC(C)(O)C(=O)N1CCN(c2ccc(C(F)(F)F)c(C3=C(c4c[nH]c5ccccc45)C(=O)NC3=O)c2)CC1`, the IC50 in [1] came to 344 nM; in [2], 2110 nM.
With `NC(=O)/C=C/c1ccc(-c2nc3cnc4[nH]ccc4c3n2C2CCCCC2)cc1`, the solubility entry in data set [15] is on record as “Insoluble”. The compound further showed an IC50 in data set [5] of more than 1000 nM.
`NC(=O)CCc1ccc(-c2nc3cnc4[nH]ccc4c3n2C2CCCCC2)cc1`: the midpoint of inhibition in [5], the IC50, lay at 499 nM.
The same measure, in the same setting: then `NC(=O)/C=C/c1ccc(-c2nc3cnc4[nH]ccc4c3n2C2CCCCC2)o1`, with 129 nM; and `CN(C)C(=O)C(C#N)=Cc1ccc(-c2nc3cnc4[nH]ccc4c3n2C)o1`, with 368 nM.
On to `N#CC(C#N)=Cc1cccc(-c2nc3cnc4[nH]ccc4c3n2C2CCCCC2)c1`, for which, in data set [6], the Drug metabolism entry is reported as “Metabolite_Detected”. For the same compound, the IC50 in [5] came to 11 nM.
Compound `CN(C)C(=O)CCc1cccc(-c2nc3cnc4[nH]ccc4c3n2C2CCCCC2)c1` gave an IC50 in data set [5] of 678 nM.
For `N#C/C=C/c1cccc(-c2nc3cnc4[nH]ccc4c3n2C2CCCCC2)c1`, the IC50 in [5] worked out at 135 nM.
Consider `N#CCCc1ccc(-c2nc3cnc4[nH]ccc4c3n2C2CCCCC2)o1`, for which the half-inhibitory concentration (IC50) in data set [1] worked out at 16 nM; in data set [2], 25 nM; in data set [3] it was 10 nM; in [4], 48 nM; in data set [5], 129 nM.
As for `NC(=O)CCc1cccc(-c2nc3cnc4[nH]ccc4c3n2C2CCCCC2)c1`, the concentration for half-maximal inhibition (IC50) in data set [5] was determined as 490 nM.
`CN(C)C(=O)CCc1ccc(-c2nc3cnc4[nH]ccc4c3n2C2CCCCC2)cc1` had an IC50 in [5] of 642 nM.
As to `N#C/C=C/c1ccc(-c2nc3cnc4[nH]ccc4c3n2C2CCCCC2)o1`, the 50% effective concentration (EC50) is more than 10000 nM in data set [7], 7710 nM in data set [8], 740 nM in data set [9] and 13300 nM in data set [10]. The IC50 in [1] stood at 12 nM; in data set [2], 44 nM; in data set [3], 0.21 nM; in [4], 53 nM; in [5] it was 27 nM. Besides, the remaining at 3 h, 100 µM in [11] stood at 53.9%. Further, the remaining at 3 h, 1 µM in data set [12] was 98.8%.
Regarding `CNC(=O)C(C#N)=Cc1ccc(-c2nc3cnc4[nH]ccc4c3n2C2CCCCC2)o1`, 23 nM corresponded to half-maximal inhibition in [5] (IC50).
Regarding `CN1CCN(C(=O)C(C#N)=Cc2ccc(-c3nc4cnc5[nH]ccc5c4n3C3CCCCC3)o2)CC1`, the 50% effective concentration (EC50) in data set [7] was more than 10000 nM; in [8] it was more than 10000 nM; in [9], 257 nM; in data set [10] it was more than 10000 nM. The half-life at 1 µM in [13] was 3 h. Besides, the 50% inhibitory concentration (IC50) in [1] came to 117 nM; in [2], 791 nM; in [3], 0.74 nM; in [4], 765 nM; in data set [5] it was 14 nM. Moreover, in [11], the remaining at 3 h, 100 µM was found to be 6.9%. In addition, in [14], the concentration in solution (solubility) was 248 µM (≈ 120 µg/mL). Further, in data set [12], the remaining at 3 h, 1 µM was 47%.
